This passage reports Activity results from ChEMBL document CHEMBL5390205, “Acidonemycins A-C, Glycosylated Angucyclines with Antivirulence Activity Produced by the Acidic Culture of Streptomyces indonesiensis” (J Nat Prod, 2023).

Type in all cases: functional, organism-based
What all share (conditions): dose 0-100 µg/ml

Test [1] concerns Staphylococcus aureus. Kind of test: Antivirulence activity against methicillin-resistant Staphylococcus aureus USA300 LAC assessed as inhibition of biofilm formation incubated for 22 hrs by crystal violet staining based assay.
The test system of test [2] is Staphylococcus aureus. Kind of test: Antivirulence activity against methicillin-resistant Staphylococcus aureus USA300 LAC assessed as inhibition of delta toxin production incubated for 22 hrs by LC-MS analysis.
Test [3] has as its system Staphylococcus aureus. Kind of test: Antivirulence activity against methicillin-resistant Staphylococcus aureus USA300 LAC assessed as inhibition of phenol-soluble modulin alpha1-4 production incubated for 22 hrs by LC-MS analysis.

Activity calls are given as the source filed them. The rule behind the calls is not given here.

In the case of `COC(=O)[C@H]1O[C@@H](Oc2cccc3c2C(=O)O[C@H]3c2c(O)ccc3c2C(=O)C[C@@H](C)C3)[C@H](O)[C@@H](O)[C@@H]1O`, the result with Staphylococcus aureus [1], in the test with Staphylococcus aureus [2] and in the test on Staphylococcus aureus [3] was inactive.
`COC(=O)[C@H]1O[C@@H](Oc2cccc3c2C(=O)c2ccc4c(c2C3=O)C(=O)C[C@@H](C)C4)[C@H](O)[C@@H](O)[C@@H]1O`: the Activity result in the test with Staphylococcus aureus [1], in the test on Staphylococcus aureus [2] and in the test on Staphylococcus aureus [3] was “Dose-Dependent Effect” throughout.
On to `C[C@@H]1CC(=O)c2c(ccc3c2C(=O)c2cccc(O[C@@H]4O[C@H](C(=O)O)[C@@H](O)[C@H](O)[C@H]4O)c2C3=O)C1`, for which the Activity result in the test on Staphylococcus aureus [1], with Staphylococcus aureus [2] and with Staphylococcus aureus [3] was “Dose-Dependent Effect” in each case.
